Tests used:
[1] = Stability on incubation with mouse liver microsomes (MLM); type: in vitro ADME; details: percentage left after incubation with mouse liver microsomes for 30 minutes
Procedure: (§1) Stability of hydroxyquinoline analogs were determined (see e.g., TABLE 18). MLM represents the percentage left after incubation with mouse liver microsomes for 30 minutes. HLM represents the percentage left after incubation with human liver microsomes for 30 minutes.
(§2) Stability of analogs having a benzaldehyde derived ring were determined (see e.g., TABLE 18). MLM represents the percentage left after incubation with mouse liver microsomes for 30 minutes. HLM represents the percentage left after incubation with human liver microsomes for 30 minutes.

[2] = Stability on incubation with human liver microsomes (HLM); type: in vitro ADME; details: percentage left after incubation with human liver microsomes for 30 minutes
Procedure: as §1, §2

MLM % Remaining@ 30 Min [1] [%] | HLM % Remaining@ 30 Min [2] [%] | SMILES
5 | 14 | Cc1ccnc(NC(c2ccccc2Cl)c2ccc3cccnc3c2O)c1 (centres unmarked) [AD4-12907]
6 | 48 | Oc1c(C(Nc2cccnc2)c2cccc(Cl)c2Cl)ccc2cccnc12 (centres unmarked) [AD4-12908]
13 | 50 | COc1ccc(C(Nc2cccc(C)n2)c2ccc3cccnc3c2O)cc1O (centres unmarked) [AD4-12909]
17 | 57 | Cc1cccc(NC(c2ccc(Cl)cc2Cl)c2ccc3cccnc3c2O)n1 (centres unmarked) [AD4-12911]
10 | 38 | Cc1ccnc(NC(c2ccc(Cl)cc2Cl)c2ccc3cccnc3c2O)c1 (centres unmarked) [AD4-12912]
41 | 61 | Cc1cccc(NC(c2cc(Cl)cc(Cl)c2)c2ccc3cccnc3c2O)n1 (centres unmarked) [AD4-12913]
25 | 71 | Cc1ccnc(NC(c2cc(Cl)cc(Cl)c2)c2ccc3cccnc3c2O)c1 (centres unmarked) [AD4-12915]
26 | 80 | Cc1cccc(NC(c2ccc(Cl)c(Cl)c2)c2ccc3cccnc3c2O)n1 (centres unmarked) [AD4-12916]
11 | 53 | Cc1ccnc(NC(c2ccc(Cl)c(Cl)c2)c2ccc3cccnc3c2O)c1 (centres unmarked) [AD4-12917]
15 | 51 | Cc1cccc(NC(c2ccc3cccnc3c2O)c2c(F)c(F)cc(F)c2F)n1 (centres unmarked) [AD4-12918]
41 | 61 | Cc1cccc(NC(c2cc(Cl)ccc2Cl)c2ccc3cccnc3c2O)n1 (centres unmarked) [AD4-12955]
15 | 42 | Cc1cccc(NC(c2ccc3cccnc3c2O)c2c(F)cccc2Cl)n1 (centres unmarked) [AD4-12959]
5 | 36 | Cc1cccc(NC(c2ccc(C)c(F)c2F)c2ccc3ccc(C)nc3c2O)n1 (centres unmarked) [AD4-13022]
60 | 95 | Cc1cccc(NC(c2cc(Cl)cc(Cl)c2Cl)c2ccc3cccnc3c2O)n1 (centres unmarked) [AD4-13023]
20 | 47 | Cc1cccc(NC(c2ccc(F)cc2Cl)c2ccc3cccnc3c2O)n1 (centres unmarked) [AD4-13024]
77 | 76 | Oc1c(C(Nc2ccc(C(F)(F)F)cn2)c2ccc(F)cc2F)ccc2cccnc12 (centres unmarked) [AD4-13029]
77 | 98 | Cc1cc(Cl)cnc1NC(c1ccc(C(F)(F)F)c(F)c1)c1ccc2cccnc2c1O (centres unmarked) [AD4-13043]
26 | 77 | Oc1c(C(Nc2cc(Cl)ccn2)c2ccc(F)cc2F)ccc2cccnc12 (centres unmarked) [AD4-13045]
40 | 72 | Oc1c(C(Nc2ccc(C(F)(F)F)nc2)c2ccc(C(F)(F)F)c(F)c2)ccc2cccnc12 (centres unmarked) [AD4-13051]
46 | 97 | Oc1c(C(Nc2ccc(Cl)cn2)c2ccc(C(F)(F)F)cc2)ccc2cccnc12 (centres unmarked) [AD4-13053]

MLM % Remaining@ 30 Min [1] [%] | HLM % Remaining@ 30 Min [2] [%] | SMILES
46 | 80 | Oc1c(C(Nc2ccc(Cl)cn2)c2ccc(Cl)c(Cl)c2)ccc2cccnc12 (centres unmarked) [AD4-13054]
57 | 100 | Oc1c(C(Nc2ccc(Cl)cn2)c2ccc(C(F)(F)F)c(F)c2)ccc2cccnc12 (centres unmarked) [AD4-13055]
85 | 88 | Oc1c(C(Nc2ccc(C(F)(F)F)cn2)c2cc(C(F)(F)F)ccc2Cl)ccc2cccnc12 (centres unmarked) [AD4-13056]
60 | 75 | Cc1cc(Cl)cnc1NC(c1cc(C(F)(F)F)ccc1Cl)c1ccc2cccnc2c1O (centres unmarked) [AD4-13058]
64 | 92 | Cc1cc(Cl)cnc1NC(c1ccc2cccnc2c1O)c1c(F)c(F)cc(F)c1F (centres unmarked) [AD4-13059]
58 | 93 | Oc1c(C(Nc2ccc(F)cn2)c2ccc(C(F)(F)F)c(F)c2)ccc2cccnc12 (centres unmarked) [AD4-13061]
42 | 80 | Oc1c(C(Nc2ccc(C(F)(F)F)nc2)c2ccc(C(F)(F)F)cc2)ccc2cccnc12 (centres unmarked) [AD4-13063]
47 | 83 | Oc1c(C(Nc2ccc(C(F)(F)F)nc2)c2ccc(C(F)(F)F)cc2F)ccc2cccnc12 (centres unmarked) [AD4-13065]
46 | 89 | Oc1c(C(Nc2ccc(Cl)cn2)c2ccc(Cl)c(C(F)(F)F)c2)ccc2cccnc12 (centres unmarked) [AD4-13067]
46 | 96 | Cc1cc(Cl)cnc1NC(c1ccc(F)cc1F)c1ccc2cccnc2c1O (centres unmarked) [AD4-13068]
13 | 64 | Cc1cccc(NC(c2cc(Cl)cc(Cl)c2)c2ccc3ccc(C)nc3c2O)n1 (centres unmarked) [AD4-13075]
28 | 70 | Cc1cccc(NC(c2cc(Cl)cc(Cl)c2)c2cc(Cl)c3cccnc3c2O)n1 (centres unmarked) [AD4-13076]
52 | 85 | Oc1c(C(Nc2ccc(Cl)cn2)c2cc(Cl)cc(Cl)c2)ccc2cccnc12 (centres unmarked) [AD4-13094]
42 | 86 | Cc1cc(NC(c2ccc(C(F)(F)F)c(F)c2)c2ccc3cccnc3c2O)ncc1Cl (centres unmarked) [AD4-13106]
28 | 83 | Cc1cc(NC(c2cccc(C(F)(F)F)c2)c2ccc3cccnc3c2O)ncc1Cl (centres unmarked) [AD4-13107]
40 | 99 | Cc1cc(NC(c2cc(Cl)cc(Cl)c2)c2ccc3cccnc3c2O)ncc1F (centres unmarked) [AD4-13114]
60 | 94 | Cc1cc(NC(c2cc(Cl)cc(Cl)c2)c2ccc3cccnc3c2O)ncc1Cl (centres unmarked) [AD4-13122]
71 | 100 | Cc1cc(NC(c2ccc(Cl)c(Cl)c2)c2ccc3cccnc3c2O)ncc1Cl (centres unmarked) [AD4-13166]
67 | 94 | Cc1ccc2ccc(C(Nc3ncc(Cl)cc3C)c3ccc(Cl)cc3Cl)c(O)c2n1 (centres unmarked) [AD4-13200]
97 | 100 | Cc1nc(NC(c2ccc(Cl)c(Cl)c2)c2ccc3cccnc3c2O)c(Cl)cc1Cl (centres unmarked) [AD4-13202]

Source: patent publication US9073858B2, “Methods of targeted drug development” (priority 2010, dated 2015)
